This is an account of results in ChEMBL document CHEMBL4610029, “Essential structure of orexin 1 receptor antagonist YNT-707, part V: Structure-activity relationship study of the substituents on the 17-amino group” (Bioorg Med Chem Lett, 2020).

For orientation: Ki means the dissociation constant of the complex between target and ligand, obtained from inhibition or displacement. As usually defined, the inhibition is the drop in the measured response relative to a control, in per cent.

Assay [1] deals with T1, Orexin/Hypocretin receptor type 1 (Homo sapiens, UniProt O43613).
T1 sequence (O43613 whole entry): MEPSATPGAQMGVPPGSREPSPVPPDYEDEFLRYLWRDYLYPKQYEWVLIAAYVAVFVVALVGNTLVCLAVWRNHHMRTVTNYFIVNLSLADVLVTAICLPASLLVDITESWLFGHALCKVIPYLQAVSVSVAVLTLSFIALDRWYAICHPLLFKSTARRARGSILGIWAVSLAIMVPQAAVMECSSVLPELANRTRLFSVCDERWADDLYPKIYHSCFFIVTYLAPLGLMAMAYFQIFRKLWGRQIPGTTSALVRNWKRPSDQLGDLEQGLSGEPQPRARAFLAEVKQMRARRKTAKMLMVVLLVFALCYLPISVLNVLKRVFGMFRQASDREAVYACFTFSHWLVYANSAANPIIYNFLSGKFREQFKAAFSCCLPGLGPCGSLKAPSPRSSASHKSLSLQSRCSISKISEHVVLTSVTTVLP
The assay is described as follows: Antagonist activity at OX1R (unknown origin) assessed as inhibition of orexin A-induced intracellular Ca2+ release by cell-based assay. In kind it is functional.

In assay [2] the target is T2, Orexin/Hypocretin receptor type 1 (Homo sapiens) (UniProt O43613).
T2 sequence (whole entry): T1 sequence (O43613 whole entry)
Description: Antagonist activity at OX1R (unknown origin) assessed as inhibition of orexin A-induced intracellular Ca2+ release at 10 uM by cell-based assay relative to control. In kind it is functional.

Consider `COc1ccc2c3c1O[C@@H]1C3[C@@H](CC[C@H]1N(C)C(=O)/C=C/c1ccoc1)[C@H](N(CC1CC1)C(=O)OC(C)(C)C)C2` (stereo partly specified), for which the Ki in assay [1] (read-out: Ki) amounted to 0.0148 µM.

Regarding `COc1ccc2c3c1O[C@@H]1C3[C@@](O)(CC[C@H]1N(C)C(=O)/C=C/c1ccoc1)[C@H](NCC1CC1)C2` (stereo partly specified), the Ki entry in assay [1] was “Not Active”.

`COc1ccc2c3c1O[C@@H]1C3[C@@H](CC[C@H]1N(C)C(=O)/C=C/c1ccoc1)[C@H](NCC1CC1)C2` (stereo partly specified): the Ki in assay [1] (read-out: Ki) worked out at 0.392 µM.

For the compound `COc1ccc2c3c1O[C@@H]1C3[C@]3(CC[C@H]1N(C)C(=O)/C=C/c1ccoc1)OS(=O)(=O)N(CC1CC1)[C@@H]3C2` (stereo partly specified), the Ki in assay [1] (read-out: Ki) was 1.2 µM.

In the case of `COc1ccc2c3c1O[C@@H]1C3[C@@](O)(CC[C@H]1N(C)C(=O)/C=C/c1ccoc1)[C@H](N(CC1CC1)C(=O)c1ccccc1)C2` (stereo partly specified), the Ki in assay [1] (read-out: Ki) turned out to be 0.275 µM.

`COc1ccc2c3c1O[C@@H]1C3[C@@](O)(CC[C@H]1N(C)C(=O)/C=C/c1ccoc1)[C@H](N(CC1CC1)C(=O)C1CC1)C2` (stereo partly specified): the Ki in assay [1] (read-out: Ki) is 1.09 µM.

As for `COc1ccc2c3c1O[C@@H]1C3[C@@](O)(CC[C@H]1N(C)C(=O)/C=C/c1ccoc1)[C@H](N(CC1CC1)C(=O)OC(C)(C)C)C2` (stereo partly specified), the Ki in assay [1] (read-out: Ki) was found to be 0.0728 µM.

Regarding `COc1ccc2c3c1O[C@@H]1C3[C@]3(CC[C@H]1N(C)C(=O)/C=C/c1ccoc1)OC(=O)N(CC1CC1)[C@@H]3C2` (stereo partly specified), the Ki in assay [1] (read-out: Ki) was 0.538 µM.

On to `COc1ccc2c3c1O[C@@H]1C3[C@@H](CC[C@H]1N(C)C(=O)/C=C/c1ccoc1)[C@H](N(C)CC1CC1)C2` (stereo partly specified), for which the inhibition constant (Ki) in assay [1] (read-out: Ki) was 0.0501 µM.

For `COc1ccc2c3c1O[C@@H]1C3[C@@H](CC[C@H]1N(C)C(=O)/C=C/c1ccoc1)[C@H](N(C)S(=O)(=O)c1ccccc1)C2` (stereo partly specified), the Ki in assay [1] (read-out: Ki) was determined as 0.829 µM.

For the compound `COc1ccc2c3c1O[C@@H]1C3[C@@](O)(CC[C@H]1N(C)C(=O)/C=C/c1ccoc1)[C@H](N(CC1CC1)C(C)=O)C2` (stereo partly specified), the inhibition in assay [2] turned out to be 48%.
